From patent publication US20250221966A1, “RXFP1 AGONISTS” (BRISTOL-MYERS SQUIBB COMPANY, priority 2021, published 2025)

Each compound was assayed against T1, human RXFP1 (Homo sapiens, UniProt Q9HBX9) (assay: RXFP1 cAMP assay (hRXFP1 HEK293 cAMP assay, HTRF)). Conditions: HEK293 cells stably expressing human RXFP1, 30 min at room temperature, read-out: cAMP hRXFP1 HEK293 Assay EC50.
T1 construct: expressed in transfected cells
T1 sequence (Q9HBX9 1-757): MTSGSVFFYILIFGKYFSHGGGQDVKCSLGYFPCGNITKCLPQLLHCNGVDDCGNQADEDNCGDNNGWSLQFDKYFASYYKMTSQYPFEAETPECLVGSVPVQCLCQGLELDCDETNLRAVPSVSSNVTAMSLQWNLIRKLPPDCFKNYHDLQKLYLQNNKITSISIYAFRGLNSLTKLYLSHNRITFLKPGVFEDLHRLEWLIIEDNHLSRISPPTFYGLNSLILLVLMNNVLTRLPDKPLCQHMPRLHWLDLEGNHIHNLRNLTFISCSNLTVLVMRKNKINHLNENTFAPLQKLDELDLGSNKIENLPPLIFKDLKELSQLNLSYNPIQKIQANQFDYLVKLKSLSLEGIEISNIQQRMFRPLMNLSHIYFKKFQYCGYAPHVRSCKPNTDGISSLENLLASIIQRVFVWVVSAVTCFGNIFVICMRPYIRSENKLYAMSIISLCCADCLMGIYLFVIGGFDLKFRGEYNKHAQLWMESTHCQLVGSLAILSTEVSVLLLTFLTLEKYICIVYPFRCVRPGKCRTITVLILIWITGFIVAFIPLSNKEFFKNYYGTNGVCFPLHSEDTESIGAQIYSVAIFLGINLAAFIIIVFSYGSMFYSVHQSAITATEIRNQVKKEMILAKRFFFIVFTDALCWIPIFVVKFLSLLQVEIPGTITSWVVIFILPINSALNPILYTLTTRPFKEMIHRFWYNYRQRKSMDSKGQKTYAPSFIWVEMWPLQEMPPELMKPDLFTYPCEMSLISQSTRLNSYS
Assay type: cell-based
Method in brief: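 Potency and activity come from a four-parameter logistic fit of cAMP against compound concentration, tested from 0.010 nM up to 50 μM. The assay uses HEK293 cells stably expressing human RXFP1, incubated 30 min at ambient temperature with phosphodiesterase inhibitor IBMX present.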

Structure (SMILES)	EC50 [µM]
COc1ccc(C2=NOC3CC(C(N)=O)CC23)cc1C(=O)N[C@H]1[C@@H](C(=O)NCC(C)(C)C)[C@H]2CC[C@@H]1/C2=C\C1CC1 (some centres unmarked) [compound 516]	0.0176
COc1cc(F)c(F)cc1C(=O)N[C@@H]1C2CCC(/C2=C/c2cc(C)cc(C)c2)[C@@H]1C(=O)Nc1ccc(F)c(C(F)(F)F)c1 (some centres unmarked) [compound 60]	0.92
C=C/C=C1\C2CCC1[C@H](C(=O)Nc1ccc(F)c(C(F)(F)F)c1)[C@@H]2NC(=O)c1cc(F)c(F)cc1OC (some centres unmarked) [compound 44]	0.026
COc1ccc(C2CN(C(=O)N3CCC(O)CC3)C2)cc1C(=O)N[C@H]1[C@@H](C(=O)Nc2ccc(F)c(C(F)(F)F)c2)[C@H]2CC[C@@H]1/C2=C\C1CC1 [compound 527]	0.0224
COc1ccc(C2=NOC3COCC23)cc1C(=O)N[C@H]1[C@@H](C(=O)N[C@@H]2CCc3ccccc32)[C@H]2CC[C@@H]1/C2=C\C1CC1 (some centres unmarked) [compound 577]	0.0707
COc1ccc(N2CCCC(CO)C2)cc1C(=O)N[C@@H]1C2CCC(/C2=C/C2CC2)[C@@H]1C(=O)Nc1ccc(F)c(C(F)(F)F)c1 (single isomer, unassigned) [compound 705]	1.3
COc1ccc(C2=NOC(CCO)C2CCO)cc1C(=O)N[C@H]1[C@@H](C(=O)Nc2ccc(F)c(C(F)(F)F)c2)[C@H]2CC[C@@H]1/C2=C\C1CC1 (some centres unmarked) [compound 501]	0.0116
COc1c(F)cc(C2=NOC3CC(CO)CC23)cc1C(=O)N[C@H]1[C@@H](C(=O)N[C@H](C)C2(C)CC2)[C@H]2CC[C@@H]1/C2=C\CC(O)C(F)(F)F (some centres unmarked) [compound 832]	0.0036
COc1ccc(C2=NO[C@H]3C[C@H](CO)C[C@@H]23)cc1C(=O)N[C@H]1[C@@H](C(=O)N[C@H](C)C2(C)CC2)[C@H]2CC[C@@H]1/C2=C\CC(O)C(F)(F)F (some centres unmarked) [compound 815]	0.0015
CCC/C=C1\[C@H]2CC[C@@H]1[C@H](C(=O)Nc1ccc(F)c(C(F)(F)F)c1)[C@@H]2NC(=O)c1cc(C2=NOC3CC(CO)CC23)ccc1OC (some centres unmarked) [compound 800]	0.001
COc1ccc(C2=NOC3COCC23)cc1C(=O)N[C@H]1[C@@H](C(=O)NCc2ncccc2C(F)(F)F)[C@H]2CC[C@@H]1/C2=C\C1CC1 (some centres unmarked) [compound 690]	0.712
COc1ccc(C2=NOC3COCC23)cc1C(=O)N[C@H]1[C@@H](C(=O)NCc2cccnc2C)[C@H]2CC[C@@H]1/C2=C\C1CC1 (some centres unmarked) [compound 721]	3.91
COc1ccc(F)cc1C(=O)N[C@@H]1C2CCC(C2=C(C)C)[C@@H]1C(=O)Nc1ccc(F)c(C(F)(F)F)c1 (some centres unmarked) [compound 111]	0.86

Results, then the compound that gave them:

EC50 [µM]	Structure (SMILES)
0.073	COC(=O)C(NC(=O)C1CCOCC1)c1ccc(F)c(-c2ccc(OC)c(C(=O)N[C@@H]3C4CCC(/C4=C/C(F)(F)F)[C@@H]3C(=O)Nc3ccc(F)c(C(F)(F)F)c3)c2)c1 (some centres unmarked) [compound 247]
0.31	COc1cc(F)c(F)cc1C(=O)N[C@@H]1C2CCC(/C2=C/C(=O)OCc2ccccc2)[C@@H]1C(=O)Nc1ccc(F)c(C(F)(F)F)c1 (some centres unmarked) [compound 9]
0.013	C=C/C=C1\C2CCC1[C@H](C(=O)Nc1ccc(F)c(C(F)(F)F)c1)[C@@H]2NC(=O)c1cc(-c2cc(C(N)=O)ccc2F)ccc1OC (some centres unmarked) [compound 163]
0.0227	COc1ccc(-c2noc(CCO)c2CCO)cc1C(=O)N[C@H]1[C@@H](C(=O)Nc2ccc(F)c(C(F)(F)F)c2)[C@H]2CC[C@@H]1/C2=C\C1CC1 [compound 531]
0.0022	COc1ccc(-c2cc(C(COC(=O)NC3CCC3)C(F)(F)F)ccc2F)cc1C(=O)N[C@H]1[C@@H](C(=O)Nc2ccc(F)c(C(F)(F)F)c2)[C@H]2CC[C@@H]1/C2=C\C1CCCC1 (some centres unmarked) [compound 893]
0.001	COc1ccc(-c2cc(C(OC(=O)Nc3ccccc3)C(=O)O)ccc2F)cc1C(=O)N[C@@H]1C2CCC(/C2=C/C(F)(F)F)[C@@H]1C(=O)Nc1ccc(F)c(C(F)(F)F)c1 (some centres unmarked) [compound 205]
0.0016	COc1ccc(C2=NOC3CC(CO)CC23)cc1C(=O)N[C@H]1[C@@H](C(=O)Nc2ccc(F)c(C(F)(F)F)c2)[C@H]2CC[C@@H]1/C2=C\C(C)C (some centres unmarked) [compound 450]
0.0067	COc1ccc(C2=NOC(C)(CO)C2)cc1C(=O)N[C@H]1[C@@H](C(=O)Nc2ccc(F)c(C(F)(F)F)c2)[C@H]2CC[C@@H]1C2=CC1CC1 (single isomer, unassigned) [compound 480]
4.81	COc1ccc(N2CCCC(CO)C2)cc1C(=O)NC1C2CCC(/C2=C/C(F)(F)F)C1C(=O)Nc1ccc(F)c(C(F)(F)F)c1 (stereo in doubt) [Example 329, (1R,2R,3R,4R,Z)—N-(4-fluoro-3-(trifluoromethyl)phenyl)-3-(5-(3-(hydroxymethyl)piperidin-1-yl)-2-methoxybenzamido)-7-(2,2,2-trifluoroethylidene)bicyclo[2.2.1]heptane-2-carboxamide]
0.024	COC(=O)N1CC2ON=C(c3ccc(OC)c(C(=O)N[C@H]4[C@@H](C(=O)Nc5ccc(F)c(C(F)(F)F)c5)[C@H]5CC[C@@H]4/C5=C\C4CC4)c3)C2C1 (stereo partly drawn) [Example 438, methyl 3-(3-(((1R,2R,3S,4R,Z)-7-(cyclopropylmethylene)-3-((4-fluoro-3-(trifluoromethyl)phenyl)carbamoyl)bicyclo[2.2.1]heptan-2-yl)carbamoyl)-4-methoxyphenyl)-3a,4,6,6a-tetrahydro-5H-pyrrolo[3,4-d]isoxazole-5-carboxylate]
0.002	COc1ccc(-c2cc(C(OC(=O)NCCC(F)(F)F)C(F)(F)F)ccc2F)cc1C(=O)N[C@@H]1C2CCC(/C2=C/C2CC2)[C@@H]1C(=O)Nc1ccc(F)c(C(F)(F)F)c1 (some centres unmarked) [compound 213]
1.38	COc1ccc(-c2cc(C(=O)O)ccc2F)cc1C(=O)N[C@@H]1C2CCC(/C2=C/C2CC2)[C@@H]1C(=O)Nc1ccc(F)c(F)c1F (some centres unmarked) [compound 305]
0.61	COc1ccc(-c2cc(C(=O)NS(=O)(=O)C3CC3)ccc2F)cc1C(=O)N[C@@H]1C2CCC(C2=C(C)C)[C@@H]1C(=O)Nc1ccc(F)c(C(F)(F)F)c1 (some centres unmarked) [compound 157]
0.11	COc1ccc(-c2ccc(C(=O)O)cc2F)cc1C(=O)N[C@H]1[C@@H](C(=O)Nc2ccc(F)c(C(F)(F)F)c2)[C@H]2CC[C@@H]1C2=C(C)C [compound 84]
0.011	COc1ccc(-c2cc(C(OC(C)=O)C(=O)O)ccc2F)cc1C(=O)N[C@@H]1C2CCC(/C2=C/c2cnoc2)[C@@H]1C(=O)Nc1ccc(F)c(C(F)(F)F)c1 (some centres unmarked) [Example 178]
0.36	COc1ccc(C2CC3COCC32)cc1C(=O)N[C@H]1[C@@H](C(=O)Nc2ccc(F)c(C(F)(F)F)c2)[C@H]2CC[C@@H]1/C2=C\C1CC1 (stereo partly drawn) [Example 725, (1R,2S,3R,4R,Z)-3-(5-(3-oxabicyclo[3.2.0]heptan-6-yl)-2-methoxybenzamido)-7-(cyclopropylmethylene)-N-(4-fluoro-3-(trifluoromethyl)phenyl)bicyclo[2.2.1]heptane-2-carboxamide]
0.59	COc1ccc(-c2cccnc2F)cc1C(=O)N[C@H]1[C@@H](C(=O)Nc2ccc(F)c(C(F)(F)F)c2)[C@H]2CC[C@@H]1C2=C(C)C [compound 102]
0.0087	COc1ccc(-c2cccc(C3=NOC4CC(O)CC34)c2)cc1C(=O)N[C@H]1[C@@H](C(=O)Nc2ccc(F)c(C(F)(F)F)c2)[C@H]2CC[C@@H]1/C2=C\C1CC1 (some centres unmarked) [compound 902]
0.364	COc1ccc(C2CC(O)C(=O)N2C)cc1C(=O)N[C@@H]1C2CCC(/C2=C/C2CC2)[C@@H]1C(=O)Nc1ccc(F)c(C(F)(F)F)c1 (single isomer, unassigned) [Example 414]
